The record followed here is US9040713B2, “Methods of managing blood sugar levels and compositions related thereto” (EMORY UNIVERSITY, priority 2010, dated 2015).

Assay [1] concerns 3T3-L1 adipocytes. As to the kind of experiment: [3H] 2-deoxyglucose transport in 3T3-L1 adipocytes. The assay is classed as cell-based, mouse. Particulars: for glucose uptake after depletion of IR: siRNA against IR. On the procedure: NIH 3T3-L1 preadipocytes and MEFs were grown in standard media. MEF were continuously passed in standard media to generate spontaneously immortalizedfibroblasts. […] 3T3-L1 adipocytes were reseeded into 12-well plates 10 to 12 days after differentiation. […] The transport reaction was initiated by adding 2-deoxyglucose (final 100 uM) with [3H] 2-deoxyglucose (0.2 μCi/well). After a 10 min incubation period, cells were washed three times with ice-cold PBS, solubilized in 1% SDS, 1M NaOH. After neutralization, radioactivity was measured by scintillation counting

Assay [2] deals with wild-type MEF cells. As to the kind of experiment: [3H] 2-deoxyglucose transport in wild-type MEF cells. Format: cell-based, mouse. Particulars: insulin 100 nM 15 min or compound 5 μM 30 min. On the procedure: Insulin signaling in the cell lysates were tested by immunoblotting. (B) DDN stimulates glucose uptake. […] [3H]2-deoxyglucose was then added, and the cells were further incubated for 10 min. [3H]2-deoxyglucose uptake by adipocytes was measured by scintillation counting (*: P<0.05 **: P<0.01 vs control, Student's t-test, n=3). (C) DDN synergizes insulin's signaling. […] Cell lysates were then prepared for Western blot using specific antibodies as indicated. […] 3H-2-deoxyglucose was then added, and the cells were further incubated for 10 min. 3H-2-deoxyglucose uptake by adipocytes was measured by scintillation counting (*: P<0.05; **: P<0.01, Student's t-test, n=3). (E) IR is necessary for DDN to induce ERK phosphorylation. Differentiated 3T3-L1 adipocytes were transfected with control siRNA or siRNA against IR. […] Cell lysates were analyzed by Western blot. (F) The glucose uptake induced by DDN in p85α knockout MEF cells. […] The uptake of 3H-2-deoxyglucose was monitored by liquid scintillation counting (*: P<0.05; **: P<0.01 vs control, Student's t-test, n=3).
(A) 4524-E7 activates IR phosphorylation and its downstream signaling in 3T3-L1 adipocytes. […] The cells were lysed, and immunoprecipitated with PY20, and followed by Western blot using specific antibodies. (B) 4524-E7 stimulates glucose uptake in 3T3-L1 adipocytes. […] [3H]2-deoxyglucose was added, and the cells were further incubated for 10 min. The amount of [3H]2-deoxyglucose taken by adipocytes was measured. (C) 4524-E7 inhibits fatty acid oxidation. […] Results were normalized to DMSO-treated cells and expressed as mean±S.E.M. (*: P<0.05; **:P<0.01, Student's t-test, n=3). (D) IR knockdown in adipocytes decreases IR signaling by 4524-E7. […] Cells lysates were collected and analyzed by Western blot. […] 2-deoxyglucose was monitored by liquid scintillation counter. Results were expressed as mean±S.E.M. (*: P<0.05; **:P<0.01, Student's t-test, n=3).
NIH 3T3-L1 preadipocytes and MEFs were grown in standard media. […] After neutralization, radioactivity was measured by scintillation counting

Assay [3] concerns C57BL/6J mice. The experiment in a line: Blood glucose level test in C57BL/6J mice. Particulars: for time until decrease of blood glucose: DDN 20 mg/kg oral, insulin 1 U/kg i.p. The assay is classed as in vivo, mouse. On the procedure: (A) DDN reduces blood glucose in C57BL/6J mice. […] Blood glucose was monitored before and after dosing at various time points as indicated (*: P<0.05, **: P<0.01; ***: P<0.001, n=10-13, Two-way ANOVA vs vehicle). (B) DDN provokes IR phosphorylation and its downstream signaling in C57BL/6J mice. Three month-old C57BL/6J mice were starved for 12 h and then orally administrated with vehicle (0.5% methylcellulose), DDN (20 mg/kg) or 2NH2-NQ (20 mg/kg). Cell lysates were prepared from liver and muscle tissues collected at 3, 4, and 5 h after drug administration and analyzed by immunoprecipitation and immunoblotting. (C) DDN quickly activates IR phosphorylation and its downstream signaling. Three-month-old C57BL/6J mice were starved for 12 h and then injected with vehicle, 5 mg/kg DDN or 5 mg/kg 2NH2-NQ through vena cava. After 5 min, the liver was collected and analyzed by immunobloting using specific antibodies.
(§1) (A) 4524-E7 provokes IR phosphorylation in various tissues of mice. Three-month-old C57BL/6J mice were starved for 12 h and then dosed with vehicle (0.5% methylcellulose) or 4524-E7 (20 mg/kg). Cell lysates from liver, muscle, and WAT were prepared at 3, 4, and 5 h after drug administration and analyzed by immunoblotting. (B) Basal and insulin-stimulated hepatic glucose production rates were measured by hyperinsulinemic-euglycemic clamp. […] (C) Hypoglycemic effect of 4524-E7 in C57BL/6J mice. C57BL/6J mice were starved for 12 h and then orally administrated with vehicle (0.5% methylcellulose) or 4524-E7 (5 mg/kg). Blood glucose was monitored at different time points as indicated (n=8, *: P<0.05, two-way ANOVA). (D) Hypoglycemic effect in db/db mice. db/db mice were starved for 12 h and then orally injected with vehicle (0.5% methylcellulose) or 4524-E7 (5 mg/kg). Blood glucose was monitored at different time points as indicated (n=5, *: P<0.05, two-way ANOVA). (E) Glucose tolerance test in ob/ob mice. The mice were starved for 12 hours and then orally administrated with vehicle or 4524-E7 (5 mg/kg). A bonus of glucose (2 gm/kg) was injected intraperitoneally 1 hour later. Blood glucose was then measured at 30 min intervals (n=13, *: P<0.05; **: P<0.01, two-way ANOVA).
After a 12 h fasting, C57B5L/6J and db/db mice were bled from the tail vein for a baseline measurement with a glucometer (Accu-Chek; Roche Diagnostics, Indianapolis, Ind.). Afterward, animals were orally administered 5 mg/kg compound in 0.5% methylcellulose through a feeding needle. Blood glucose levels were measured at hourly intervals over 5 h.

In assay [4] the test system is db/db mice. As to the kind of experiment: Blood glucose level test in db/db mice. Format: in vivo, mouse. Particulars: for duration of blood glucose lowering effect: DDN 5 mg/kg oral, insulin 1 U/kg i.p. On the procedure:
Three-month-old mice were starved for 12 h and then orally administrated with vehicle (0.5% methylcellulose) or DDN (5 mg/kg). Cell lysates were prepared from liver and muscle tissues collected at 1 and 2 h after drug administration and analyzed by immunoprecipitation and immunoblotting. […] Three-month-old mice were starved for 12 h and then orally administrated with vehicle (0.5% methylcellulose) or DDN (5 mg/kg). Cell lysates were prepared from liver and muscle tissues collected at 1 and 2 h after drug administration and analyzed by immunoprecipitation and immunoblotting. (C) Hypoglycemic function of DDN in db/db mice. The animals were starved for 12 h and then orally injected with vehicle (0.5% methylcellulose) or DDN (5 mg/kg). […] Blood glucose was monitored before and after drug administration at 1-hour intervals (*: P<0.05, **: P<0.01, n=5, Two-way ANOVA vs vehicle). (D) DDN improves the glucose tolerance in ob/ob mice. The animals were starved for 12 h and then orally dosed with vehicle (0.5% methylcellulose) or DDN (5 mg/kg). […] A bonus of glucose (2 gm/kg) was injected intraperitoneally 1 hour later. Blood glucose was measured at 30-min intervals (*: P<0.05, **:P<0.01, n=5, Two-way ANOVA vs vehicle control).
as §1
After a 12 h fasting, C57B5L/6J and db/db mice were bled from the tail vein for a baseline measurement with a glucometer (Accu-Chek; Roche Diagnostics, Indianapolis, Ind.). […] Blood glucose levels were measured at hourly intervals over 5 h.

Consider `O=C1c2ccccc2C(=O)C2SC(Nc3ccc(Cl)cc3)=NC12` (stereo not shown) [4524-E7, 2-((4-chlorophenyl)amino)naphtho[2,3-d]thiazole-4,9(3aH,9aH)-dione], for which the “glucose uptake as compared to control” value in assay [1] (5 μM, 30 min) is listed as “nearly quadrupled”. Besides, in assay [1] (30 min), the “lowest concentration significantly elevating glucose uptake” value is 1 µM. Also, the “glucose uptake in combination with insulin” value in assay [1] (4524-E7 plus 10 nM insulin, versus the two agents alone) was “additively escalated”. Besides, the “glucose uptake after depletion of IR” value in assay [1] is “substantially diminished”. The “[3H]-2-deoxyglucose uptake” value in assay [2] was “triggered robust [3H]-2-deoxyglucose uptake”. The blood glucose in assay [3] (5 mg/kg single oral administration, 3˜4 h after) is on record as 70 % of basal level; in assay [4] (5 mg/kg oral, one hour after administration), “about 50 % of the initial value”.
Regarding `CC(=O)Oc1ccc(OC(C)=O)c2c1C(=O)C(Cl)=C(Cl)C2=O` [DDN, 5,8-diacetyloxy-2,3-dichloro-1,4-naphthoquinone], in assay [1] (5 nM DDN plus 5 nM insulin), the “glucose uptake in combination with insulin” value is “further increased”. Also, in assay [1] (DDN 0.1, 0.25, 0.5 μM, 30 min), the 3H-deoxyglucose uptake result was “escalated 3H-deoxyglucose uptake in a dose-dependent manner”. Also, the “[3H]-2-deoxyglucose uptake” value in assay [2] is “triggered robust 3H-deoxyglucose uptake”. Further, the “blood glucose as compared to vehicle control” value is “significantly reduced blood glucose” in assay [3] (20 mg/kg oral, 12 h starved) and “lower blood glucose was found in db/db mice” in assay [4] (5 mg/kg oral, one h after administration). Also, the “time until decrease of blood glucose” value in assay [3] is on record as 3 h. In addition, in assay [4], the “duration of blood glucose lowering effect” value is recorded as “sustain till the end of the experiment”.
Consider “insulin: insulin, used as positive control”, for which, in assay [1] (5 nM, alone), the 3H-deoxyglucose uptake result is reported as “significantly increased”. Moreover, in assay [1], the “glucose uptake after depletion of IR” value is “substantially diminished”. Also, the “[3H]-2-deoxyglucose uptake” value in assay [2] is “triggered robust [3H]-2-deoxyglucose uptake”. For the same molecule, the “time until decrease of blood glucose” value in assay [3] was “Thirty min”. Further, the “duration of blood glucose lowering effect” value in assay [4] is listed as 2 h.
